Measurements: patent publication US20180313843A1, “SAMHD1 MODULATION FOR TREATING RESISTANCE TO CANCER THERAPY” (priority 2015, published 2018)
In brackets after ≈: the same amount, converted by molar mass.

Experiments:
[1] = tested on: HEL SAMHD1 wt; experiment: Cell viability, Ara-C with or without 3-DU, SAMHD1 wt over-expression; assay type: cell-based, human; conditions: for dependence of anti-leukemic activity on expression levels of SAMHD1: THP-1 (−/−) vs (+/+), AML panel and HEL versus HEL SAMHD1 wt cells
[2] = tested on: THP-1 −/−; experiment: Cell viability, Ara-C with or without 3-DU and other NAs, SAMHD1 knock-out; assay type: cell-based, human
Method: THP-1 CRISP/Cas9 control and SAMHD1 knock-out cells were provided by Prof. Veit Hornung and cultivated in RPMI supplemented with 10% FCS, 100 IU/ml penicillin, and […] streptomycin. PDX cells were thawed and cultivated as previously described (Vick, 2015).
(§1) Cell viability assay. Cell viability of the AML cell lines and primary AML cultures were determined by the 3-(4,5-dimethylthiazol-2-yl)-2,5-diphenyltetrazolium bromide (MTT) dye reduction assay after 96 hour incubation as described previously (reference 7). Due to lower cell proliferation frequencies of the primary cells the CellTiter-Glo® Luminescent Cell Viability Assay (Promega) was used according to manufacturer's instruction. Here, the number of viable cells was determined 96 hours post treatment based on the quantification of the ATP levels.

[3] = biological target: T1, SAMHD1 (Homo sapiens, UniProt Q9Y3Z3); experiment: Enzymatic in vitro assay with bacterially expressed SAMHD1 protein (triphosphohydrolase activity); assay type: biochemical; conditions: dGTP used as activator of SAMHD1
T1 construct: made in house
Source text: SAMHD1 hydrolyzes intracellular dNTPs resulting in a reduction of intracellular dNTP pools.

[4] = tested on: intracellular Ara-CTP, CTP and dCTP levels; experiment: Effect of 3-DU and Ara-C on intracellular triphosphate levels; assay type: cell-based; conditions: 3-DU treatment in combination with Ara-C
Method: dNTP measurement. 5×10^5 cells were treated with 10 μg/ml Ara-C 13C3 (Santa Cruz) and incubated at 37° C. in a humidified 5% CO2 incubator for 6 hours. Subsequently, cells were washed twice in 1×PBS, pelleted and stored at −20° C. until measurement. The samples were analyzed at the Institute of Clinical Pharmacology (Goethe University Frankfurt) by liquid chromatography-electrospray ionization-tandem mass spectrometry as previously described (reference 8).
Briefly, the analytes were extracted by protein precipitation with methanol. […] Additional to the analytes reported in the publication, 13C3-Ara-CMP, 13C3-Ara-CDP and 13C3-Ara-CTP were quantified using the validated method and cytidine-^13C9, ^15N3-5′-triphosphate as internal standard (IS). The precursor-to-product ion transitions used as quantifiers were m/z 327.0→115.1 for 13C3-Ara-CMP, m/z 407.0→115.1 for 13C3-Ara-CDP and m/z 487.0→115.1 for 13C3-Ara-CTP. A calibration curve was constructed for the quantitation of 13C3-Ara-CMP while no calibration standards were commercially available for 13C3-Ara-CDP and 13C3-Ara-CTP. For this reason, these analytes were quantified semiquantitatively by comparing the peak area ratios (analyte/IS) determined in the differently treated samples. […]

[5] = tested on: THP-1 (−/−) and THP-1 (+/+) cells; experiment: Cytarabine triphosphate measurement by liquid chromatography tandem mass spectrometry; assay type: cell-based, human; conditions: 10 μg/ml cytarabine for 6 h
Method: dNTP measurement. […] Subsequently, cells were washed twice in 1×PBS, pelleted and stored at −20° C. until measurement. The samples were analyzed at the Institute of Clinical Pharmacology (Goethe University Frankfurt) by liquid chromatography-electrospray ionization-tandem mass spectrometry as previously described (reference 8).
Briefly, the analytes were extracted by protein precipitation with methanol. An anion exchange HPLC column (BioBasic AX, Thermo) was used for the chromatographic separation and a 5500 QTrap (Sciex, Darmstadt, Germany) was used as analyzer, operating as triple quadrupole in positive multiple reaction monitoring (MRM) mode. Additional to the analytes reported in the publication, 13C3-Ara-CMP, 13C3-Ara-CDP and 13C3-Ara-CTP were quantified using the validated method and cytidine-^13C9, ^15N3-5′-triphosphate as internal standard (IS). The precursor-to-product ion transitions used as quantifiers were m/z 327.0→115.1 for 13C3-Ara-CMP, m/z 407.0→115.1 for 13C3-Ara-CDP and m/z 487.0→115.1 for 13C3-Ara-CTP. A calibration curve was constructed for the quantitation of 13C3-Ara-CMP while no calibration standards were commercially available for 13C3-Ara-CDP and 13C3-Ara-CTP. For this reason, these analytes were quantified semiquantitatively by comparing the peak area ratios (analyte/IS) determined in the differently treated samples.

[6] = tested on: HELrAra-C, HL-60rAra-C and Molm-13rAra-C; experiment: Cytarabine cytotoxicity in Ara-C resistant AML sublines; assay type: cell-based, human
Method: Ara-C resistant cell lines THP-1, HEL, HL-60, Molm13, and Molt4 were established by continuous exposure to increasing drug concentrations and are part of the Resistant Cancer Cell Line (RCCL) collection (http://www.kent.ac.uk/stms/cmp/RCCL/RCCLabout). The generation of resistant cell lines required 1 to 2 years, depending on the cell line used. All cell lines were maintained in IMDM supplemented with 10% FCS (SIG-M5 20% FCS), […] L-Glutamine, 100 IU/ml penicillin, and […] streptomycin at 37° C. in a humidified 5% CO2 incubator. 293T cells were maintained as previously described (Keppler et al).
as §1
Remarkably, expression levels of SAMHD1 were increased in resistant cells relative to the parental cell lines (FIGS. 8A and B).

[7] = tested on: OCI-AML3 shSAMHD1; experiment: Cell viability, Ara-C with or without 3-DU, SAMHD1 knock-down; assay type: cell-based, human; conditions: OCI-AML-3, SAMHD1 shRNA compared to control shRNA
[8] = tested on: glioma cell line U251-MG; experiment: Effect of Vpx-VLPs on cytotoxic activity of cytarabine in glioma cells; assay type: cell-based; conditions: U251-MG treated with Vpx-VLPs
[9] = tested on: AML cell lines; experiment: Cell viability assay (MTT), cytarabine in panel of AML cell lines; assay type: cell-based; conditions: Homo sapiens, read-out: IC50 values (concentrations inhibiting 50% of cell growth) of cytarabine; range over AML cell lines
Method: as §1

[10] = tested on: BFTC 905; experiment: Ara-C/SAMHD1-inhibitor combination treatment, urothelial carcinoma cells; assay type: cell-based; conditions: Homo sapiens, BFTC-905, read-out: IC50 value Ara-C
[11] = tested on: THP-1 cells; experiment: Cytotoxic effects of cytarabine in VLP-treated THP-1 cells; assay type: cell-based, human; conditions: Vpx-VLPs treated THP-1 cells
[12] = tested on: SIG-M5 cells; experiment: Cytarabine toxicity after SAMHD1 shRNA knock-down; assay type: cell-based, human; conditions: SIG-M5, SAMHD1 shRNA compared to control shRNA

T1 sequence (Q9Y3Z3 whole entry): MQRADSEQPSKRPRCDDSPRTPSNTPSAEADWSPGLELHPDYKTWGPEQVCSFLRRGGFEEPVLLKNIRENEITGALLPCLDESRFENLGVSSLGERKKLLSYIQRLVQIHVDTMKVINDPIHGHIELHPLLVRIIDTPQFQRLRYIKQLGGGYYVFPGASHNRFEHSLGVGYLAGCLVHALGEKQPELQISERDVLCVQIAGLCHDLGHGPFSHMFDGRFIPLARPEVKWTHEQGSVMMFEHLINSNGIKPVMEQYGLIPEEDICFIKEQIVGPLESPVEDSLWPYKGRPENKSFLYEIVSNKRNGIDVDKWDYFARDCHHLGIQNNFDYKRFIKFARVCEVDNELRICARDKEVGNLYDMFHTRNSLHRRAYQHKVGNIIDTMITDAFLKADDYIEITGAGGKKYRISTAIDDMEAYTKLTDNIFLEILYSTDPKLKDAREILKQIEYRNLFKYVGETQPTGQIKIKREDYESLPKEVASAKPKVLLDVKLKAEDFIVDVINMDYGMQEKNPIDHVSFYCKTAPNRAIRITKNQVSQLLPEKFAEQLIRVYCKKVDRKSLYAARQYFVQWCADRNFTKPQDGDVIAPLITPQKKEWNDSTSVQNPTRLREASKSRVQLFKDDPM

## COc1nc(N)nc2c1ncn2[C@@H]1O[C@H](CO)[C@@H](O)[C@@H]1O [nelarabine]
[1]
  dependence of anti-leukemic activity on expression levels of SAMHD1: depends on expression levels of SAMHD1 albeit to a lesser extent than for cytarabine
[2]
  IC50 lower in THP-1 (−/−) cells than in THP-1 (+/+) cells: 5 fold

## Nc1nc(Cl)nc2c1ncn2[C@@H]1O[C@H](CO)[C@@H](O)[C@@H]1F [clofarabine]
[1]
  dependence of anti-leukemic activity on expression levels of SAMHD1: depends on expression levels of SAMHD1 albeit to a lesser extent than for cytarabine
[2]
  IC50 lower in THP-1 (−/−) cells than in THP-1 (+/+) cells: 2 fold

## Nc1nc2c(ncn2[C@@H]2O[C@H](CO)[C@@H](O)[C@@H]2O)c(=O)[nH]1 [Ara-G]
[1]
  dependence of anti-leukemic activity on expression levels of SAMHD1: depends on expression levels of SAMHD1 albeit to a lesser extent than for cytarabine

## cytarabine triphosphate
[3]
  substrate or activator of SAMHD1's triphosphohydrolase activity: direct substrate, but not as an activator

## O=C1C=CN([C@@H]2O[C@H](CO)[C@@H](O)[C@H]2O)C(=O)C1 [3-DU, 3-deazauridin]
[4]
  intracellular Ara-CTP levels: strongly increased
  intracellular cytodine-triphosphate (CTP) and dCTP levels: reducing

## Nc1nc(F)nc2c1ncn2[C@@H]1O[C@H](CO)[C@@H](O)[C@@H]1O [fludarabine]
[2]
  IC50 lower in THP-1 (−/−) cells than in THP-1 (+/+) cells: 5 fold

## Nc1ccn([C@@H]2O[C@H](CO)[C@@H](O)[C@@H]2O)c(=O)n1 [Ara-C, cytarabine]
[1]; HEL wt SAMHD1 compared to parental HEL or HEL SAMHD1 D207N
  decrease of sensitivity to cytarabine by wt SAMHD1 over-expression: about 70 fold
[2]; THP-1 (−/−) relative to control THP-1 (+/+)
  increase of cytarabine toxicity in SAMHD1 knock-out cells: about 50 fold
[5]
  cytarabine triphosphate amounts accumulated, THP-1(−/−) compared with THP-1(+/+): About 20 fold
[6]; Homo sapiens, read-out: IC50 values of cytarabine, range over highly resistant sublines of HEL, HL-60 and MOLM-13
  IC50: 24 to 94 µg/mL (≈ 98.7 to 386 µM)
[6]; all three cell lines tested
  toxicity of cytarabine after reduction of SAMHD1 levels using Vpx-VLPs: increased toxicity
[7]
  increase of cytarabine toxicity by SAMHD1 knock-down: about 6 fold
[8]
  enhancement of the anti-tumoral activity of cytarabine: up to 10 fold
[9]
  IC50: 0.0078 to 0.56 µg/mL (≈ 0.0321 to 2.3 µM)
[10]
  IC50: 0.021 µg/mL
[11]
  increase of cytarabine's anti-leukemic activity: about 20 fold
[12]
  increase of cytarabine toxicity by SAMHD1 knock-down: ~9 fold
